From patent US6555372B1, “Composition for enhancing cellular immunogenicity comprising alpha-glycosylceramides” (Kirin Beer Kabushiki Kaisha, priority 1997, dated 2003)

Tests used:
[1] = tested on: Mouse T lymphoma EL-4 cells; assay: Therapeutic effect of treated tumor cells in EL-4 liver metastasis model mice; assay type: in vivo
Protocol: Mouse T lymphoma EL-4 cells (4×10^5 cells/mouse) were implanted intravenously into the tail of BDF1 mice (female, 6 weeks of age, Japan SLC, Inc.), 6 animals in one group, to prepare cancer-bearing mice. The days of tumor implantation was set to be day 0. On the same day, a vehicle (0.1% DMSO), KRN 7000 (100 ng/ml) or AGL-583 (100 ng/ml) was added to EL-4 cells which had been inoculated into a fresh medium, in the same manner as in Pharmacological Test 1 above. One day after the start of incubation, cells of EL-4/V, EL-4/KRN and EL-4/583 cultured in the presence of the vehicle, KRN 7000 and AGL-583, respectively, were recovered and washed twice with the medium, after which the recovered cells were immunized intravenously into the tail of the cancer-bearing mice at 1×10^5 cells/mouse. The resulting antitumor effect was compared.
EL-4 implanted mice generally died in about 30 days owing to the tumor formation and growth in several organs, particularly in the liver. Therefore, antitumor effect was evaluated by observing the survival period of cancer-bearing hosts.

[2] = tested on: B16, EL-4, Lewis lung carcinoma, Colon 26, L1210 and Meth A mouse tumor cells; assay: Effect of α-glycosylceramide on tumorigenicity of tumor cells; assay type: in vivo; settings: six mouse tumor cell lines cultured 1 day with 100 ng/ml, implanted i.v. into C57BL/6 or BALB/c mice; FIG. 4
Source text: Six kinds of mouse tumor cells, i.e., three kinds of C57BL/6 mouse-derived tumor cells, i.e., murine melanoma B16 cells (Dainippon Pharmaceutical Co., Ltd.), mouse T lymphoma EL-4 cells (Dainippon Pharmaceutical Co., Ltd.) and mouse Lewis lung carcinoma cells (Dainippon Pharmaceutical Co., Ltd.), and three kinds of BALB/c-mouse derived tumor cells, i.e., mouse colon cancer cell Colon 26 (Japanese Foundation for Cancer Research), mouse leukemia L1210 cells (Japanese Foundation for Cancer Research) and mouse fibrosarcoma Meth A cells (Japanese Foundation for Cancer Research) were cultured with or without an addition of a vehicle (0.1% DMSO) or KRN 7000 (100 ng/ml) for one day as described in Pharmacological Tests above. The resulting tumor cells were washed twice with a medium, suspended again in a fresh medium and implanted intravenously into the tail of corresponding mice. […]
The tumor cells implanted intravenously into the tail formed metastasized nodules in various organs, particularly in the liver or lung, and ultimately killed the animals. Accordingly, the effect of the tumor cells on tumorigenicity (a rate of tumor formation, the ability to form tumor burden) was evaluated by observing the survival period.

[3] = EL-4-bearing BDF1 mice immunized i.v. on day 1 with 1×10^5 EL-4 cells cultured 1 day with 100 ng/ml compound, vs control mice with tumor only, FIG. 2

CCCCCCCCCCCCCCCCCCCCCCCCCC(=O)N[C@@H](CO[C@@H]1O[C@H](CO)[C@H](O)[C@H](O)[C@H]1O)[C@H](O)[C@H](O)CCCCCCCCCCCCCC [AGL-583, reference compound]
antitumor effect [1, 3]: no evident antitumor effect was observed
survival period [1, 3]: not prolonged at all

CCCCCCCCCCCCCCCCCCCCCCCCCC(=O)N[C@@H](CO[C@H]1O[C@H](CO)[C@H](O)[C@H](O)[C@H]1O)[C@H](O)[C@H](O)CCCCCCCCCCCCCC [KRN 7000, (2S,3S,4R)-1-(α-D-galactopyranosyloxy)-2-hexacosanoylamino-3,4-octadecanediol]
tumorigenicity of treated tumor cells [2]: diminished or completely abolished
survival period [1, 3]: markedly prolonged
treated mice survived for a long term ([1]; EL-4-bearing BDF1 mice immunized i.v. with 1×10^5 EL-4 cells cultured 1 day with 100 ng/ml compound, 6 animals per group): 33.3%
